Assay results reported in patent US7534894B2, “Biphenyloxy-acids” (Wyeth, priority 2003, dated 2009).

Legend:
[1] = biological target: T1, recombinant human plasminogen activator inhibitor-1 (PAI-1) (Homo sapiens, UniProt P05121); assay: Primary Screen for the PAI-1 Inhibition (residual tPA activity, chromogenic substrate Spectrozyme-tPA); format: biochemical; conditions: 140 nM PAI-1, 70 nM tPA, pH 6.6; for inhibition at 25 µM: 25 μM test compound; for inhibition at 100 µM: 100 μM test compound
T1 construct: purchased Molecular Innovations, Royal Oak, Mich
Description: (§1) Test compounds are dissolved in DMSO at a final concentration of 10 mM, then diluted 101× in physiologic buffer. The inhibitory assay is initiated by the addition of the test compound (1-100 μM final concentration, maximum DMSO concentration of 0.2%) in a pH 6.6 buffer containing 140 nM recombinant human plasminogen activator inhibitor-1 (PAI-1; Molecular Innovations, Royal Oak, Mich.). Following a 1 hour incubation at room temperature, 70 nM of recombinant human tissue plasminogen activator (tPA) is added, and the combination of the test compound, PAI-1 and tPA is incubated for an additional 30 minutes. Following the second incubation, Spectrozyme-tPA (American Diagnostica, Greenwich, Conn.), a chromogenic substrate for tPA, is added and absorbance read at 405 nm at 0 and 60 minutes. Relative PAI-1 inhibition is equal to the residual tPA activity in the presence of the test compound and PAI-1. Control treatments include the complete inhibition of tPA by PAI-1 at the molar ratio employed (2:1), and the absence of any effect of the test compound on tPA alone.

[2] = biological target: T1, recombinant human plasminogen activator inhibitor-1 (PAI-1); assay: Kinetic IC50: modification of the Primary Screen for the PAI-1 Inhibition; format: biochemical
Description: as §1

T1 sequence (P05121 24-402): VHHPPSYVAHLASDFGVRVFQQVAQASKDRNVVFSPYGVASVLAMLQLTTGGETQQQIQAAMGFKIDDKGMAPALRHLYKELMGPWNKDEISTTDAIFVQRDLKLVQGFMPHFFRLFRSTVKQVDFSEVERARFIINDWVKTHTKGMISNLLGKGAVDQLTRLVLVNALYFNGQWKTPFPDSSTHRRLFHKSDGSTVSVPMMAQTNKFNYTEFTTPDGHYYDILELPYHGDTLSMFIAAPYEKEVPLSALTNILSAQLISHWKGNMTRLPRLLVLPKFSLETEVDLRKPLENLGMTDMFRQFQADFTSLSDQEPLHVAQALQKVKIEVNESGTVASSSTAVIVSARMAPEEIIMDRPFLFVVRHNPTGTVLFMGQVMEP

Row | inhibition at 25 µM [1] | inhibition at 100 µM [1] | IC50 [2] | melting point | SMILES
1 | 27% | 70% | 7.41 µM | – | O=C(Nc1ccc(-c2cccc(OC(Cc3ccccc3)C(=O)O)c2)cc1)c1cc2cc(OCc3ccccc3)ccc2[nH]1 (stereo not drawn) [Compound 28, 2-{[4′-({[5-(benzyloxy)-1H-indol-2-yl]carbonyl}amino)-1,1′-biphenyl-3-yl]oxy}-3-phenylpropanoic acid]
2 | 40% | 81% | 12 µM | – | O=C(O)C(Cc1ccccc1)Oc1cccc(-c2ccc(NC(=O)C3(c4ccc(Cl)cc4)CCC3)cc2)c1 (stereo not drawn) [Compound 39, 2-{[4′-({[1-(4-chlorophenyl)cyclobutyl]carbonyl}amino)-1,1′-biphenyl-3-yl]oxy}-3-phenylpropanoic acid]
3 | 33% | 70% | 38.6 µM | – | O=C(O)C(Cc1ccccc1)Oc1ccc(-c2ccc(NC(=O)C3(c4cccc(F)c4)CCCC3)cc2)cc1 (stereo not drawn) [Compound 34, 2-{[4′-({[1-(3-fluorophenyl)cyclopentyl]carbonyl}amino)-1,1′-biphenyl-4-yl]oxy}-3-phenylpropanoic acid]
4 | 29% | 75% | 18.3 µM | – | O=C(O)COc1ccc(-c2ccc(NC(=O)c3cc(-c4ccc(-c5ccccc5)cc4)oc3C(F)(F)F)cc2)cc1 [Compound 36, [(4′-{[5-(1,1′-biphenyl-4-yl)-2-(trifluoromethyl)-3-furoyl]amino}-1,1′-biphenyl-4-yl)oxy]acetic acid]
5 | 15% | 78% | 4.04 µM | – | O=C(O)C(Cc1ccccc1)Oc1ccc(-c2ccc(NC(=O)C3(c4ccccc4)CC3)cc2)cc1 (stereo not drawn) [Compound 32, 3-phenyl-2-[(4′-{[(1-phenylcyclopropyl)carbonyl]amino}-1,1′-biphenyl-4-yl)oxy]Propanoic acid]
6 | 2% | 66% | – | 190 to 192 °C | CCCc1c(C(=O)NCc2ccc(-c3ccc(OCC(=O)O)cc3)cc2)cnn1-c1ccccc1 [Compound 2, ({4′-[({[1-phenyl-5-propyl-1H-pyrazol-4-yl]carbonyl}amino)methyl][1,1′-biphenyl]-4-yl}oxy)acetic acid]
7 | 17% | 52% | 11.8 µM | – | Cc1nn(Cc2ccc(C(=O)Nc3ccc(-c4cccc(OC(Cc5ccccc5)C(=O)O)c4)cc3)o2)c(C)c1Br (stereo not drawn) [Compound 44, 2-{[4′-({5-[(4-bromo-3,5-dimethyl-1H-pyrazol-1-yl)methyl]-2-furoyl}amino)-1,1′-biphenyl-3-yl]oxy}-3-phenylpropanoic acid]
8 | 30% | 95% | 9.1 µM | – | CCCCc1oc2ccccc2c1C(=O)Nc1ccc(-c2cccc(OC(Cc3ccccc3)C(=O)O)c2)cc1 (stereo not drawn) [Compound 41, 2-[(4′-{[(2-butyl-1-benzofuran-3-yl)carbonyl]amino}-1,1′-biphenyl-3-yl)oxy]-3-phenylpropanoic acid]
9 | 23% | 73% | 17.4 µM | – | O=C(O)C(Cc1ccccc1)Oc1cccc(-c2ccc(NC(=O)C3(c4cccc(F)c4)CCCC3)cc2)c1 (stereo not drawn) [Compound 30, 2-{[4′-({[1-(3-fluorophenyl)cyclopentyl]carbonyl}amino)-1,1′-biphenyl-3-yl]oxy}-3-phenylpropanoic acid]
10 | 44% | 82% | – | 175 to 190 °C | CCCCc1oc2ccccc2c1C(=O)NCc1ccc(-c2ccc(OCC(=O)O)c(Br)c2)cc1 [Compound 4, {[3-bromo-4′-({[(2-butyl-1-benzofuran-3-yl)carbonyl]amino}methyl)[1,1′-biphenyl]-4-yl]oxy}acetic acid]
11 | 34% | 61% | 11.5 µM | – | O=C(Nc1ccc(-c2ccc(OC(Cc3ccccc3)C(=O)O)cc2)cc1)c1ccc(Oc2ccccc2)cc1 (stereo not drawn) [Compound 45, 2-({4′-[(4-phenoxybenzoyl)amino]-1,1′-biphenyl-4-yl}oxy)-3-phenylpropanoic acid]
12 | 24% | 51% | 31.1 µM | – | O=C(O)C(Cc1ccccc1)Oc1ccc(-c2ccc(NC(=O)C3(c4ccccc4)CCCC3)cc2)cc1 (stereo not drawn) [Compound 31, 3-phenyl-2-[(4′-{[(1-phenylcyclopentyl)carbonyl]amino}-1,1′-biphenyl-4-yl)oxy]Propanoic acid]
13 | 36% | 51% | 12.1 µM | – | O=C(Nc1ccc(-c2cccc(OC(Cc3ccccc3)C(=O)O)c2)cc1)c1cccc2c1-c1ccccc1C2 (stereo not drawn) [Compound 24, 2-({4′-[(9H-fluoren-4-ylcarbonyl)amino]-1,1′-biphenyl-3-yl}oxy)-3-phenylpropanoic acid]
14 | 29% | 62% | – | 210 to 212 °C | CCCCc1oc2ccccc2c1C(=O)Nc1ccc(-c2ccc(OCc3nnn[nH]3)cc2)cc1 [Compound 14, 2-Butyl-N-[4′-(1H-tetraazol-5-ylmethoxy)[1,1′-biphenyl]-4-yl]-1-benzofuran-3-carboxamide]
15 | 36% | 84% | 5.4 µM | – | O=C(Nc1ccc(-c2ccc(OC(Cc3ccccc3)C(=O)O)cc2)cc1)c1ccc(-c2ccc(Cl)cc2)s1 (stereo not drawn) [Compound 46, 2-{[4′-({[5-(4-chlorophenyl)thien-2-yl]carbonyl}amino)-1,1′-biphenyl-4-yl]oxy}-3-phenylpropanoic acid]
16 | 5% | 52% | 38.7 µM | – | O=C(Nc1ccc(-c2cccc(OC(Cc3ccccc3)C(=O)O)c2)cc1)c1ccc(-c2ccc(Cl)cc2)s1 (stereo not drawn) [Compound 38, 2-{[4′-({[5-(4-chlorophenyl)thien-2-yl]carbonyl}amino)-1,1′-biphenyl-3-yl]oxy}-3-phenylpropanoic acid]
17 | 35% | 57% | 18.6 µM | – | O=C(Nc1ccc(-c2cccc(OC(Cc3ccccc3)C(=O)O)c2)cc1)c1cc(-c2ccc(-c3ccccc3)cc2)oc1C(F)(F)F (stereo not drawn) [Compound 42, 2-[(4′-{[5-(1,1′-biphenyl-4-yl)-2-(trifluoromethyl)-3-furoyl]amino}-1,1′-biphenyl-3-yl)oxy]-3-phenylpropanoic acid]
18 | 26% | 74% | 40.8 µM | – | O=C(O)C(Cc1ccccc1)Oc1cccc(-c2ccc(NC(=O)C3(c4ccccc4)CCCC3)cc2)c1 (stereo not drawn) [Compound 25, 3-phenyl-2-[(4′-{[(1-phenylcyclopentyl)carbonyl]amino}-1,1′-biphenyl-3-yl)oxy]propanoic acid]
19 | 25% | 90% | 8.71 µM | – | CCCCc1oc2ccccc2c1C(=O)Nc1ccc(-c2ccc(OC(Cc3ccccc3)C(=O)O)cc2)cc1 (stereo not drawn) [Compound 49, 2-[(4′-{[(2-butyl-1-benzofuran-3-yl)carbonyl]amino}-1,1′-biphenyl-4-yl)oxy]-3-phenylpropanoic acid]
20 | 25% | 85% | – | 225 to 227 °C | CCCCc1oc2ccccc2c1C(=O)Nc1ccc(-c2ccc(OCC(=O)O)cc2)cc1 [Compound 13, [(4′-{[(2-butyl-1-benzofuran-3-yl)carbonyl]amino}[1,1′-biphenyl]-4-yl)oxy]acetic acid]
